Reference: patent US11999695B2, “YAP1 inhibitors that target the interaction of YAP1 with OCT4” (H. LEE MOFFITT CANCER CENTER AND RESEARCH INSTITUTE, INC., priority 2016, dated 2024)
pIC50: −log10 of the molar value.

Experiments:
YAP1:OCT4 = YAP1:OCT4 (Homo sapiens, UniProt P46937); experiment: In vitro YAP1:OCT4 ELISA binding assay; details: YAP1:OCT4 disruption
Procedure: Activities of Compounds in the In Vitro YAP1:OCT4 ELISA Binding Assay
Selected compounds were assayed in a YAP1:OCT4 binding assay.

binding of Oct4 to YAP1 = target: T1, binding of Oct4 to YAP1 (Homo sapiens, UniProt P46937); experiment: Immunoprecipitation-Western blot of Oct4-YAP1 binding (FIG. 15); format: cell-based; details: 5 μM, 72 hours
T1 construct: Lysates were prepared from the cells, and immunoprecipitated with an antibody to OCt4; endogenous in cells; host or cells: A549 and H1650 cells
Procedure: FIG. 15 is a group of gel images showing peptidomimetic compounds SR2-022, SR2-030, and SR2-033 reduced YAP1-Oct4 interaction as detected by IP-WB. An immunoprecipitation-Western blot experiment was conducted to assess if the indicated compounds could disrupt the binding of Oct4 to YAP1. IP-western blots were conducted using the protocols described in Bora-Singhal et al, 2015. Essentially, cells were treated with 5 μM of the indicated compounds for 72 hours. Lysates were prepared from the cells, and immunoprecipitated with an antibody to OCt4, or a control IgG. Lysates as well as the immunoprecipitates were resoled by a polyacrylamide gel and a western blot was conducted using an antibody to YAP1.

T1 sequence (P46937 whole entry): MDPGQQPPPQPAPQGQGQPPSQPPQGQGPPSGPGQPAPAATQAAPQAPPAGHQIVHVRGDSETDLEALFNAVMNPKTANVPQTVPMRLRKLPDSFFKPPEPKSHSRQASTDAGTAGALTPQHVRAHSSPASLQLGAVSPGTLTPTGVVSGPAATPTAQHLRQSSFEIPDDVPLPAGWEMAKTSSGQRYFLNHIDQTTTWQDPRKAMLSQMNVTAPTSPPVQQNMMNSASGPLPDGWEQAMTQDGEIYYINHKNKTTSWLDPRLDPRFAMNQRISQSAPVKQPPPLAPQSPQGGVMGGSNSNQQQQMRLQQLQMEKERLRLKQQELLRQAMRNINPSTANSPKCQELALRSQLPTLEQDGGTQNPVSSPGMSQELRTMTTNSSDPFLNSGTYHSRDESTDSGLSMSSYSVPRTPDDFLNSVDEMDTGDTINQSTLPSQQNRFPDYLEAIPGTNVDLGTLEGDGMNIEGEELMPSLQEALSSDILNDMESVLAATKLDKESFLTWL
Sequence of YAP1:OCT4 (P46937 whole entry): as above

SMILES | pIC50 (YAP1:OCT4) | YAP1-Oct4 interaction detected by IP-WB (binding of Oct4 to YAP1; A549 cells) | YAP1-Oct4 interaction detected by IP-WB (binding of Oct4 to YAP1; H1650 cells)
COC(=O)[C@H](Cc1ccc(OCc2ccccc2)cc1)NC(=O)CN1CCN(C(=O)OC(C)(C)C)CC1 [SR1-090, tert-Butyl (S)-4-(2-((3-(4-(benzyloxy)phenyl)-1-methoxy-1-oxopropan-2-yl)amino)-2-oxoethyl)piperazine-1-carboxylate] | < 5.00 |  | 
COC(=O)[C@H](Cc1ccc(OCc2ccccc2)cc1)NC(=O)CC1CCN(C(=O)CC(c2ccccc2)c2ccccc2)CC1 [SR2-029, Methyl (S)-3-(4-(benzyloxy)phenyl)-2-(2-(1-(3,3-diphenylpropanoyl)piperidin-4-yl)acetamido)propanoate] | > 5.00 |  | 
COC(=O)[C@H](Cc1ccc(OCc2ccccc2)cc1)NC(=O)CC1CCN(Cc2ccccc2)CC1 [SR1-117, Methyl (S)-3-(4-(benzyloxy)phenyl)-2-(2-(1-benzylpiperidin-4-yl)acetamido)propanoate] | < 5.00 |  | 
N#Cc1ccc(CCC(=O)N2CCC(CC(=O)N[C@@H](Cc3ccc(OCc4ccccc4)cc3)C(=O)O)CC2)cc1 [SR2-114, (S)-3-(4-(Benzyloxy)phenyl)-2-(2-(1-(3-(4-cyanophenyl)propanoyl)piperidin-4-yl)acetamido)propanoic acid] | > 5.00 |  | 
CC(C)(C)OC(=O)N1CCC(CC(=O)N[C@@H](Cc2ccc(OCc3ccccc3)cc2)C(=O)O)CC1 [SR1-152, (S)-3-(4-(benzyloxy)phenyl)-2-(2-(1-(tert-butoxycarbonyl)piperidin-4-yl)acetamido)-propanoic acid] | 5.00 to 6.00 |  | 
O=C(CC1CCN(C(=O)CCc2ccccc2)CC1)N[C@@H](Cc1ccc(OCc2ccccc2)cc1)C(=O)NCC1CC1 [SR2-019, (S)-3-(4-(benzyloxy)phenyl)-N-(cyclopropylmethyl)-2-(2-(1-(3-phenylpropanoyl)piperidin-4-yl)acetamido)propanamide] | 5.00 to 6.00 |  | 
CC(C)NC(=O)[C@H](Cc1ccc(OCc2ccccc2)cc1)NC(=O)CC1CCN(C(=O)OC(C)(C)C)CC1 [SR1-167, tert-butyl (S)-4-(2-((3-(4-(benzyloxy)phenyl)-1-(isopropylamino)-1-oxopropan-2-yl)amino)-2-oxoethyl)piperidine-1-carboxylate] | 5.00 to 6.00 |  | 
COC(=O)[C@H](Cc1ccc(OCc2ccccc2)cc1)NC(=O)CN1CCN(C(=O)[C@@H]2CCCN2C(=O)OCC2c3ccccc3-c3ccccc32)CC1 [SR1-094, Fmoc-Pro-piperazineacetic acid Tyr(bzl)-OMe] | < 5.00 |  | 
COC(=O)[C@H](Cc1ccc(OCc2ccccc2)cc1)NC(=O)CC1CCN(C(=O)OC(C)(C)C)CC1 [SR1-083, tert-Butyl (S)-4-(2-((3-(4-(benzyloxy)phenyl)-1-methoxy-1-oxopropan-2-yl)amino)-2-oxoethyl)piperidine-1-carboxylate] | 5.00 to 6.00 |  | 
O=C(CC1CCN(C(=O)CCc2ccc(F)cc2)CC1)N[C@@H](Cc1ccc(OCc2ccccc2)cc1)C(=O)O [SR2-120, (S)-3-(4-(Benzyloxy)phenyl)-2-(2-(1-(3-(4-fluorophenyl)propanoyl)piperidin-4-yl)acetamido)propanoic acid] | > 5.00 |  | 
CCOc1ccc(CCC(=O)N2CCC(CC(=O)N[C@@H](Cc3ccc(OCc4ccccc4)cc3)C(=O)O)CC2)cc1 [SR2-122, (S)-3-(4-(Benzyloxy)phenyl)-2-(2-(1-(3-(4-ethoxyphenyl)propanoyl)piperidin-4-yl)acetamido)propanoic acid] | > 5.00 |  | 
O=C(CC1CCN(C(=O)CCc2ccccc2)CC1)N[C@@H](Cc1ccc(OCc2ccccc2)cc1)C(=O)NC1CCC1 [SR2-016, (S)-3-(4-(Benzyloxy)phenyl)-N-cyclobutyl-2-(2-(1-(3-phenylpropanoyl)piperidin-4-yl)acetamido)propanamide] | 5.00 to 6.00 |  | 

The next lines start with the values.

pIC50 (YAP1:OCT4) | YAP1-Oct4 interaction detected by IP-WB (binding of Oct4 to YAP1; A549 cells) | YAP1-Oct4 interaction detected by IP-WB (binding of Oct4 to YAP1; H1650 cells) | SMILES
> 5.00 |  |  | COC(=O)[C@H](Cc1ccc(OCc2ccccc2)cc1)NC(=O)CC1CCN(C(=O)CCc2cc(Cl)cc(Cl)c2)CC1 [SR2-106, Methyl (S)-3-(4-(benzyloxy)phenyl)-2-(2-(1-(3-(3,5-dichlorophenyl)propanoyl)piperidin-4-yl)acetamido)propanoate]
5.00 to 6.00 |  |  | COC(=O)[C@H](Cc1ccc(OCc2ccccc2)cc1)NC(=O)CC1CCN(C(=O)Cc2ccccc2)CC1 [SR1-122, Methyl (S)-3-(4-(benzyloxy)phenyl)-2-(2-(1-(2-phenylacetyl)piperidin-4-yl)acetamido)-propanoate]
> 5.00 |  |  | COC(=O)[C@H](Cc1ccc(OCc2ccccc2)cc1)NC(=O)CC1CCN(C(=O)CCc2cccc(Cl)c2)CC1 [SR2-032, Methyl (S)-3-(4-(benzyloxy)phenyl)-2-(2-(1-(3-(3-chlorophenyl)propanoyl)piperidin-4-yl)acetamido)propanoate]
> 5.00 |  |  | O=C(CC1CCN(C(=O)CCc2ccc(Cl)c(Cl)c2)CC1)N[C@@H](Cc1ccc(OCc2ccccc2)cc1)C(=O)O [SR2-113, (S)-3-(4-(Benzyloxy)phenyl)-2-(2-(1-(3-(3,4-dichlorophenyl)propanoyl)piperidin-4-yl)acetamido)propanoic acid]
> 5.00 | completely abolished | significantly reduced | COC(=O)[C@H](Cc1ccc(OCc2ccccc2)cc1)NC(=O)CC1CCN(C(=O)CCc2ccc(Cl)c(Cl)c2)CC1 [SR2-030, Methyl (S)-3-(4-(benzyloxy)phenyl)-2-(2-(1-(3-(3,4-dichlorophenyl)propanoyl)piperidin-4-yl)acetamido)propanoate]
5.00 to 6.00 |  |  | COC(=O)[C@H](Cc1ccc(OCc2ccccc2)cc1)NC(=O)CC1CCN(C(=O)CCc2ccc(F)cc2)CC1 [SR2-008, Methyl (S)-3-(4-(benzyloxy)phenyl)-2-(2-(1-(3-(4-fluorophenyl)propanoyl)piperidin-4-yl)acetamido)propanoate]
> 5.00 |  |  | COC(=O)[C@H](Cc1ccc(OCc2ccccc2)cc1)NC(=O)CC1CCN(C(=O)CCc2ccc(Cl)cc2)CC1 [SR2-004, Methyl (S)-3-(4-(benzyloxy)phenyl)-2-(2-(1-(3-(4-chlorophenyl)propanoyl)piperidin-4-yl)acetamido)propanoate]
> 5.00 |  |  | COC(=O)[C@H](Cc1ccc(OCc2ccccc2)cc1)NC(=O)CC1CCN(C(=O)CCc2cccc(F)c2)CC1 [SR2-010, Methyl (S)-3-(4-(benzyloxy)phenyl)-2-(2-(1-(3-(3-fluorophenyl)propanoyl)piperidin-4-yl)acetamido)propanoate]
5.00 to 6.00 |  |  | O=C(CC1CCN(C(=O)CCc2ccccc2)CC1)N[C@@H](Cc1ccc(OCc2ccccc2)cc1)C(=O)NC1CC1 [SR2-015, (S)-3-(4-(Benzyloxy)phenyl)-N-cyclopropyl-2-(2-(1-(3-phenylpropanoyl)piperidin-4-yl)acetamido)propanamide]
> 5.00 |  |  | O=C(CC1CCN(C(=O)CCc2cccc(F)c2)CC1)N[C@@H](Cc1ccc(OCc2ccccc2)cc1)C(=O)O [SR2-117, (S)-3-(4-(Benzyloxy)phenyl)-2-(2-(1-(3-(3-fluorophenyl)propanoyl)piperidin-4-yl)acetamido)propanoic acid]
> 5.00 | completely abolished | significantly reduced | O=C(CC1CCN(C(=O)CCc2ccccc2)CC1)N[C@@H](Cc1ccc(OCc2ccccc2)cc1)C(=O)O [SR2-022, (S)-3-(4-(Benzyloxy)phenyl)-2-(2-(1-(3-phenylpropanoyl)piperidin-4-yl)acetamido)propan-oic acid]
5.00 to 6.00 |  |  | CCOc1ccc(CCC(=O)N2CCC(CC(=O)N[C@@H](Cc3ccc(OCc4ccccc4)cc3)C(=O)OC)CC2)cc1 [SR2-007, Methyl (S)-3-(4-(benzyloxy)phenyl)-2-(2-(1-(3-(4-ethoxyphenyl)propanoyl)piperidin-4-yl)acetamido)propanoate]
> 5.00 |  |  | COC(=O)[C@H](Cc1ccc(OCc2ccccc2)cc1)NC(=O)CC1CCN(C(=O)CCc2cccc(Br)c2)CC1 [SR2-107, Methyl (S)-3-(4-(benzyloxy)phenyl)-2-(2-(1-(3-(3-bromophenyl)propanoyl)piperidin-4-yl)acetamido)propanoate]
5.00 to 6.00 |  |  | COC(=O)[C@H](Cc1ccc(OCc2ccccc2)cc1)NC(=O)CC1CCN(C(=O)c2ccccc2)CC1 [SR1-118, Methyl (S)-2-(2-(1-benzoylpiperidin-4-yl)acetamido)-3-(4-(benzyloxy)phenyl)propanoate]
5.00 to 6.00 |  |  | COC(=O)[C@H](Cc1ccc(OCc2ccccc2)cc1)NC(=O)CC1CCN(C(=O)CCc2ccccc2)CC1 [SR1-119, Methyl (S)-3-(4-(benzyloxy)phenyl)-2-(2-(1-(3-phenylpropanoyl)piperidin-4-yl)acetamido)propanoate]
5.00 to 6.00 |  |  | COC(=O)[C@H](Cc1ccc(OCc2ccccc2)cc1)NC(=O)CC1CCN(C(=O)CCc2ccc(C(F)(F)F)cc2)CC1 [SR2-009, Methyl (S)-3-(4-(benzyloxy)phenyl)-2-(2-(1-(3-(4-(trifluoromethyl)phenyl)propanoyl)-piperidin-4-yl)acetamido)propanoate]
5.00 to 6.00 |  |  | COC(=O)[C@H](Cc1ccc(OCc2ccccc2)cc1)NC(=O)CC1CCN(C(=O)CCc2cccc(C)c2)CC1 [SR2-036, Methyl (S)-3-(4-(benzyloxy)phenyl)-2-(2-(1-(3-(m-tolyl)propanoyl)piperidin-4-yl)acetamido)propanoate]
5.00 to 6.00 |  |  | COC(=O)[C@H](Cc1ccc(OCc2ccccc2)cc1)NC(=O)CC1CCN(C(=O)CCc2ccccc2OC)CC1 [SR2-006, Methyl (S)-3-(4-(benzyloxy)phenyl)-2-(2-(1-(3-(2-methoxyphenyl)propanoyl)piperidin-4-yl)acetamido)propanoate]
